# Source: patent publication US8435939B2, “Polypeptide anti-HIV agent containing the same” (priority 2000, dated 2013)
# Where a SMILES comes first, the peptide text is derived from it. Bridges are numbered along the chain shown (N, C = ends). [ ]: non-standard residue; d: D form. 2Nal = N[C@@H](Cc1ccc2ccccc2c1)C(=O)O; Cit = NC(=O)NCCC[C@H](N)C(=O)O
# Tests used:
# Type in all cases: cell-based
# [1] = Cytotoxicity Test I: virus-uninfected MT-4 cells, MTT method; conditions: human, MT-4 cells (virus-uninfected); virus-uninfected MT-4 cells, MTT method; read-out: CC50 (Test I), 50% survival concentration
# Experimental: (§1) HIV-1 (IIIB) strain obtained from MOLT/HIV-1 (IIIB) cell previously infected by HIV-1 was used. The polypeptide of the present invention was added to MT-4 CD4^+ T cells infected by HIV in various kinds of concentrations, and a number of living cells after culturing at 37° C. for 5 days was determined by using a 3′-(4,5-dimethylthiazol-2-yl)-2,5-diphenyltetrazolinium bromide (MTT) method. Anti-HIV activity is shown by a concentration (EC50 value), where MT-4 cell death by HIV infection is inhibited by 50%. Cytotoxicity of the peptide according to the present invention was shown by a 50% survival concentration (Test I: CC50 value) by culturing virus-uninfected MT-4 cells with the polypeptide according to the present invention in various concentrations, and determining a number of living cells by the MTT method. Moreover, a number of living cells of human peripheral blood mononuclear cells (monocyte) (PBMC) was determined by trypan blue dyeing method, and shown by a 50% survival concentration (Test II: CC50 value). Respective ratios of the CC50 value and the EC50 value were shown as a selective index (SI). Obtained values were summarized in Table 3 using the conventionally known polypeptides T134 and T140, and an anti-HIV compound: 3′-azido-2′,3′-dideoxythymidine (AZT) used as a medicine as a control anti-HIV agent.
# [2] = system: virus-uninfected MT-4 cells; assay: as above; conditions: for SI: CC50 (Test I)/EC50: selective index, MT-4 CC50 over anti-HIV EC50; for cytotoxicity in words, compared with conventional T134/T140: conclusion drawn from Table 3
# Experimental: as §1
# [3] = Cytotoxicity Test II: human PBMC, trypan blue dyeing method; conditions: human PBMC, trypan blue dyeing method; read-out: CC50 (Test II), 50% survival concentration
# [4] = system: human peripheral blood mononuclear cells (PBMC); assay: as above; conditions: selective index, PBMC CC50 over anti-HIV EC50
# [5] = system: HIV-1 (IIIB) strain; assay: Anti-HIV activity: inhibition of MT-4 cell death by HIV infection (MTT method); conditions: for EC50: MT-4 CD4+ T cells infected by HIV-1 (IIIB), 37° C., 5 days, MTT, average of at least three measurements, read-out: EC50 (concentration where MT-4 cell death by HIV infection is inhibited by 50%)
# Experimental: as §1
Compound,CC50 [1],SI: CC50 (Test I)/EC50 [2],CC50 [3],SI: CC50 (Test II)/EC50 [4],EC50 [5],"cytotoxicity in words, compared with conventional T134/T140 [2]","anti-HIV activity in words, compared with T140 ([5]; conclusion drawn from Table 3)"
"NCCCC[C@@H]1NC(=O)[C@H](CCCN=C(N)N)NC(=O)[C@H](Cc2ccc(O)cc2)NC(=O)[C@@H](NC(=O)[C@H](Cc2c[nH]c3ccccc23)NC(=O)[C@H](CCCN=C(N)N)NC(=O)[C@@H](N)CCCN=C(N)N)CSSC[C@@H](C(=O)N[C@@H](CCCN=C(N)N)C(=O)O)NC(=O)[C@H](CCCNC(N)=O)NC(=O)[C@H](CCCN=C(N)N)NC(=O)[C@H](Cc2ccc(O)cc2)NC(=O)[C@@H]2CCCN2C(=O)[C@@H](CCCCN)NC1=O [Compound T134, H-Arg-Arg-Trp-Cys-Tyr-Arg-Lys-DLys-Pro-Tyr-Arg-Cit-Cys-Arg-OH, reference compound] (H-RRWCYRK[dK]PYR[Cit]CR-OH; disulfide 4-13)",> 1 µM,>>120,190 µM,23000,,,
"NCCCC[C@@H]1NC(=O)[C@H](CCCN=C(N)N)NC(=O)[C@H](Cc2ccc(O)cc2)NC(=O)[C@@H](NC(=O)[C@H](Cc2ccc3ccccc3c2)NC(=O)[C@H](CCCN=C(N)N)NC(=O)[C@@H](N)CCCN=C(N)N)CSSC[C@@H](C(=O)N[C@@H](CCCN=C(N)N)C(=O)O)NC(=O)[C@H](CCCNC(N)=O)NC(=O)[C@H](CCCNC(N)=O)NC(=O)[C@H](Cc2ccc(O)cc2)NC(=O)[C@@H]2CCCN2C(=O)[C@@H](CCCCN)NC1=O [TC14006, H-Arg-Arg-Nal-Cys-Tyr-Arg-Lys-DLys-Pro-Tyr-Cit-Cit-Cys-Arg-OH] (H-RR[2Nal]CYRK[dK]PY[Cit][Cit]CR-OH; disulfide 4-13)",> 80 µM,>5300,310 µM,20000,,,
"N=C(N)NCCC[C@H](NC(=O)[C@@H]1CSSC[C@H](NC(=O)[C@H](Cc2ccc3ccccc3c2)NC(=O)[C@H](CCCNC(=N)N)NC(=O)[C@@H](N)CCCNC(N)=O)C(=O)N[C@@H](Cc2ccc(O)cc2)C(=O)N[C@@H](CCCNC(=N)N)C(=O)N[C@@H](CCCCN)C(=O)N[C@H](CCCNC(N)=O)C(=O)N2CCC[C@H]2C(=O)N[C@@H](Cc2ccc(O)cc2)C(=O)N[C@@H](CCCNC(=N)N)C(=O)N[C@@H](CCCNC(N)=O)C(=O)N1)C(N)=O [TC14018, H-Cit-Arg-Nal-Cys-Tyr-Arg-Lys-DCit-Pro-Tyr-Arg-Cit-Cys-Arg-NH2]",> 100 µM,>83000,,,0.0012 µM,lowered cytotoxicity,
"C[C@@H]1NC(=O)[C@H](Cc2ccc(O)cc2)NC(=O)[C@@H]2CCCN2C(=O)[C@@H](CCCCN)NC(=O)[C@H](CCCCN)NC(=O)[C@H](CCCNC(=N)N)NC(=O)[C@H](Cc2ccc(O)cc2)NC(=O)[C@@H](NC(=O)[C@H](Cc2ccc3ccccc3c2)NC(=O)[C@H](CCCNC(=N)N)NC(=O)[C@@H](N)CCCNC(=N)N)CSSC[C@@H](C(=O)N[C@@H](CCCNC(=N)N)C(=O)O)NC(=O)[C@H](CCCNC(N)=O)NC1=O [TA14010, H-Arg-Arg-Nal-Cys-Tyr-Arg-Lys-DLys-Pro-Tyr-Ala-Cit-Cys-Arg-OH] (H-RR[2Nal]CYRK[dK]PYA[Cit]CR-OH; disulfide 4-13)",> 80 µM,>4800,,,0.018 µM,,
"N=C(N)NCCC[C@H](NC(=O)[C@@H]1CSSC[C@H](NC(=O)[C@H](Cc2ccc3ccccc3c2)NC(=O)[C@H](CCCNC(=N)N)NC(=O)[C@@H](N)CCCNC(=N)N)C(=O)N[C@@H](Cc2ccc(O)cc2)C(=O)N[C@@H](CCCNC(N)=O)C(=O)N[C@@H](CCCCN)C(=O)N[C@H](CCCNC(N)=O)C(=O)N2CCC[C@H]2C(=O)N[C@@H](Cc2ccc(O)cc2)C(=O)N[C@@H](CCCNC(=N)N)C(=O)N[C@@H](CCCNC(N)=O)C(=O)N1)C(=O)O [TC14011, H-Arg-Arg-Nal-Cys-Tyr-Cit-Lys-DCit-Pro-Tyr-Arg-Cit-Cys-Arg-OH]",> 100 µM,>200000,,,0.0005 µM,lowered cytotoxicity,
"N=C(N)NCCC[C@H](NC(=O)[C@@H]1CSSC[C@H](NC(=O)[C@H](Cc2ccc3ccccc3c2)NC(=O)[C@H](CCCNC(=N)N)NC(=O)[C@@H](N)CCCNC(=N)N)C(=O)N[C@@H](Cc2ccc(O)cc2)C(=O)N[C@@H](CCCNC(N)=O)C(=O)N[C@@H](CCCCN)C(=O)N[C@H](CCCCN)C(=O)N2CCC[C@H]2C(=O)N[C@@H](Cc2ccc(O)cc2)C(=O)N[C@@H](CCCNC(=N)N)C(=O)N[C@@H](CCCNC(N)=O)C(=O)N1)C(N)=O [TN14003, H-Arg-Arg-Nal-Cys-Tyr-Cit-Lys-DLys-Pro-Tyr-Arg-Cit-Cys-Arg-NH2] (H-RR[2Nal]CY[Cit]K[dK]PYR[Cit]CR-NH2; disulfide 4-13 (inferred))",> 100 µM,>166000,,,0.0006 µM,lowered cytotoxicity,
"N=C(N)NCCC[C@H](NC(=O)[C@@H]1CSSC[C@H](NC(=O)[C@H](Cc2ccc3ccccc3c2)NC(=O)[C@H](CCCNC(=N)N)NC(=O)[C@@H](N)CCCNC(=N)N)C(=O)N[C@@H](Cc2ccc(O)cc2)C(=O)N[C@@H](CCCNC(N)=O)C(=O)N[C@@H](CCCCN)C(=O)N[C@H](CCCNC(N)=O)C(=O)N2CCC[C@H]2C(=O)N[C@@H](Cc2ccc(O)cc2)C(=O)N[C@@H](CCCNC(=N)N)C(=O)N[C@@H](CCCNC(N)=O)C(=O)N1)C(N)=O [TC14012, H-Arg-Arg-NaI-Cys-Tyr-Cit-Lys-DCit-Pro-Tyr-Arg-Cit-Cys-Arg-NH2]",> 100 µM,>250000,,,0.0004 µM,lowered cytotoxicity,higher anti-HIV activity
"C[C@H]1NC(=O)[C@H](CCCCN)NC(=O)[C@H](CCCN=C(N)N)NC(=O)[C@H](Cc2ccc(O)cc2)NC(=O)[C@@H](NC(=O)[C@H](Cc2ccc3ccccc3c2)NC(=O)[C@H](CCCN=C(N)N)NC(=O)[C@@H](N)CCCN=C(N)N)CSSC[C@@H](C(=O)N[C@@H](CCCN=C(N)N)C(=O)O)NC(=O)[C@H](CCCNC(N)=O)NC(=O)[C@H](CCCN=C(N)N)NC(=O)[C@H](Cc2ccc(O)cc2)NC(=O)[C@@H]2CCCN2C1=O [TA14007, H-Arg-Arg-Nal-Cys-Tyr-Arg-Lys-DAla-Pro-Tyr-Arg-Cit-Cys-Arg-OH] (H-RR[2Nal]CYRK[dA]PYR[Cit]CR-OH; disulfide 4-13)",> 80 µM,>5200,,,,,
"N=C(N)NCCC[C@H](NC(=O)[C@@H]1CSSC[C@H](NC(=O)[C@H](Cc2ccc3ccccc3c2)NC(=O)[C@H](CCCNC(=N)N)NC(=O)[C@@H](N)CCCNC(=N)N)C(=O)N[C@@H](Cc2ccc(O)cc2)C(=O)N[C@@H](CCCNC(=N)N)C(=O)N[C@@H](CCCCN)C(=O)N[C@H](CCCNC(N)=O)C(=O)N2CCC[C@H]2C(=O)N[C@@H](Cc2ccc(O)cc2)C(=O)N[C@@H](CCCNC(=N)N)C(=O)N[C@@H](CCCNC(N)=O)C(=O)N1)C(N)=O [TN14005, H-Arg-Arg-Nal-Cys-Tyr-Arg-Lys-DCit-Pro-Tyr-Arg-Cit-Cys-Arg-NH2]",> 100 µM,>21000,,,0.0046 µM,cytotoxicity is markedly lowered,
"C[C@@H]1NC(=O)[C@H](CCCN=C(N)N)NC(=O)[C@H](Cc2ccc(O)cc2)NC(=O)[C@@H](NC(=O)[C@H](Cc2ccc3ccccc3c2)NC(=O)[C@H](CCCN=C(N)N)NC(=O)[C@@H](N)CCCN=C(N)N)CSSC[C@@H](C(=O)N[C@@H](CCCN=C(N)N)C(=O)O)NC(=O)[C@H](CCCNC(N)=O)NC(=O)[C@H](CCCN=C(N)N)NC(=O)[C@H](Cc2ccc(O)cc2)NC(=O)[C@@H]2CCCN2C(=O)[C@@H](CCCCN)NC1=O [TA14006, H-Arg-Arg-Nal-Cys-Tyr-Arg-Ala-DLys-Pro-Tyr-Arg-Cit-Cys-Arg-OH] (H-RR[2Nal]CYRA[dK]PYR[Cit]CR-OH; disulfide 4-13)",> 80 µM,>1800,,,,,
"C[C@H](N)C(=O)N[C@@H](CCCNC(=N)N)C(=O)N[C@@H](Cc1ccc2ccccc2c1)C(=O)N[C@H]1CSSC[C@@H](C(=O)N[C@@H](CCCNC(=N)N)C(=O)O)NC(=O)[C@H](CCCNC(N)=O)NC(=O)[C@H](CCCNC(=N)N)NC(=O)[C@H](Cc2ccc(O)cc2)NC(=O)[C@@H]2CCCN2C(=O)[C@@H](CCCCN)NC(=O)[C@H](CCCCN)NC(=O)[C@H](CCCNC(=N)N)NC(=O)[C@H](Cc2ccc(O)cc2)NC1=O [TA14001, H-Arg-Arg-Nal-Cys-Tyr-Arg-Lys-DLys-Pro-Tyr-Arg-Cit-Cys-Arg-OH] (H-AR[2Nal]CYRK[dK]PYR[Cit]CR-OH; disulfide 4-13)",> 40 µM,>750,,,0.056 µM,,
